# Columns and labels:
# [1] = target: T1, N neuronal alpha4beta2 (h) (Homo sapiens, UniProt P17787+P43681); experiment: In vitro CEREP profiling, N neuronal alpha4beta2 (h) (agonist radioligand); assay type: binding; conditions: test compound concentration 10 uM
# T1 construct: purchased Eurofins Cerep (SafetyScreen44), recognised from the panel format
# Description: (§1) Supplement media-1.zip/Safety_Panel_Profile.csv, table | column: perc_inhibition
# [2] = target: T2, COX1(h) (Homo sapiens, UniProt P23219); experiment: In vitro CEREP profiling, COX1(h); assay type: biochemical; conditions: test compound concentration 10 uM, Enzyme and Cell-based assays
# T2 construct: purchased Eurofins Cerep (SafetyScreen44), recognised from the panel format
# T2 sequence (P23219 24-599): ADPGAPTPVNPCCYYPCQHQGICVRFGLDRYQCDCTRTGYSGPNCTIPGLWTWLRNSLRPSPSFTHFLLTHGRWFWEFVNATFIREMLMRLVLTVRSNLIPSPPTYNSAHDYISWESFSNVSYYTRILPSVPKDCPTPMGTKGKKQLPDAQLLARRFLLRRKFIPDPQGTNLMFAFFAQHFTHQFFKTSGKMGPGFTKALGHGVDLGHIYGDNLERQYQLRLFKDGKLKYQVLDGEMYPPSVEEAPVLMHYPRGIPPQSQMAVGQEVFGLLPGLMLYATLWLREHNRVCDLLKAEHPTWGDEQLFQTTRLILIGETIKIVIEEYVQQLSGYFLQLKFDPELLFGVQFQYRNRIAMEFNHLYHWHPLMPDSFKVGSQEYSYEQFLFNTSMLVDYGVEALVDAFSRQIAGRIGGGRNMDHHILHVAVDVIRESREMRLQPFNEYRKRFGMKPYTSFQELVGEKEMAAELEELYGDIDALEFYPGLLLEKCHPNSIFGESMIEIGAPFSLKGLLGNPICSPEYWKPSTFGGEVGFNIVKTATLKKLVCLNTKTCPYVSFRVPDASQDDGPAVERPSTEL
# Description: as §1
# [3] = target: T3, PDE4D2 (h) (Homo sapiens, UniProt Q08499); experiment: In vitro CEREP profiling, PDE4D2 (h); assay type: biochemical; conditions: test compound concentration 10 uM, Enzyme and Cell-based assays
# T3 construct: purchased Eurofins Cerep (SafetyScreen44), recognised from the panel format
# T3 sequence (Q08499 303-809): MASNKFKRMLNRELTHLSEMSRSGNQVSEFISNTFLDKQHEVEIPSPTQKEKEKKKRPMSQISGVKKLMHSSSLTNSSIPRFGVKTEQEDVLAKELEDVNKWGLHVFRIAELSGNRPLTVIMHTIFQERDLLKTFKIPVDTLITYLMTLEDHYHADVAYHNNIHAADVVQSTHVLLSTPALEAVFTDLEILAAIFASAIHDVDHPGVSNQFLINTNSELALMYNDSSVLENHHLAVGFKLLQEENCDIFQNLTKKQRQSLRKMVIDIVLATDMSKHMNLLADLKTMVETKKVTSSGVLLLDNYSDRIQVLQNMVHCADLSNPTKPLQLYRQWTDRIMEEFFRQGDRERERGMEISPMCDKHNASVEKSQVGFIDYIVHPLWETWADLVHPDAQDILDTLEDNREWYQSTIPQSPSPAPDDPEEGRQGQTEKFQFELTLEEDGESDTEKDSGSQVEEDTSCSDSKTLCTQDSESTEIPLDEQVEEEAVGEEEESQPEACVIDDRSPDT
# Description: as §1
# [4] = system: AR(h); experiment: In vitro CEREP profiling, AR(h) (agonist radioligand); assay type: binding, human; conditions: test compound concentration 10 uM
# Description: as §1
# [5] = target: T4, H2 (h) (Homo sapiens, UniProt P25021); experiment: In vitro CEREP profiling, H2 (h) (antagonist radioligand); assay type: binding; conditions: test compound concentration 10 uM
# T4 construct: purchased Eurofins Cerep (SafetyScreen44), recognised from the panel format
# T4 sequence (P25021 whole entry): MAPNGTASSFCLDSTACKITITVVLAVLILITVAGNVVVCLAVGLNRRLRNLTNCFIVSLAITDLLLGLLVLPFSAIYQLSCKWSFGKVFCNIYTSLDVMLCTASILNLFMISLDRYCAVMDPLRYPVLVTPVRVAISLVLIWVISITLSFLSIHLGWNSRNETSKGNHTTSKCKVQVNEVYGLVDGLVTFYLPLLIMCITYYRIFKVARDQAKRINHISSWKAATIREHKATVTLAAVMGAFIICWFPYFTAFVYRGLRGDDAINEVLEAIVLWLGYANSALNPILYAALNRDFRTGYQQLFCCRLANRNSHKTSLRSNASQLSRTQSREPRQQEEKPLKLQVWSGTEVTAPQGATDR
# Description: as §1
# [6] = target: T5, beta2 (h) (Homo sapiens, UniProt P07550); experiment: In vitro CEREP profiling, beta2 (h) (antagonist radioligand); assay type: binding; conditions: test compound 10 uM
# T5 construct: purchased Eurofins Cerep (SafetyScreen44), recognised from the panel format
# T5 sequence (P07550 whole entry): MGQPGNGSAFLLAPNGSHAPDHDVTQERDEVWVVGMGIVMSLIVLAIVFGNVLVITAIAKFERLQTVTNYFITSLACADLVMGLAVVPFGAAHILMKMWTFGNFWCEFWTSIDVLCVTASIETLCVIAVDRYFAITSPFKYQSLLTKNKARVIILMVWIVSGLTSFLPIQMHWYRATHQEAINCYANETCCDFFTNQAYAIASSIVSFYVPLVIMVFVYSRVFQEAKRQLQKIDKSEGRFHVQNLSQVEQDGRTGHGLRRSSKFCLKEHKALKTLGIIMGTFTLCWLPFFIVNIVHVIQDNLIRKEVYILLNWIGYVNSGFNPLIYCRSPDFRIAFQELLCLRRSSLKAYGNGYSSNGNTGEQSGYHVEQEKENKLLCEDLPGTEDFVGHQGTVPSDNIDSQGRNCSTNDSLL
# Description: as §1
# [7] = In vitro dog liver microsomal stability; assay type: in vitro ADME
# Description: Supplement media-1.zip/Hepatic_Microsomal_Stability.csv, table | column: clint; t_half
# [8] = system: Vero E6/TMPRSS2; experiment: Vero E6/TMPRSS2 cytotoxicity with P-gp inhibitor; assay type: cell-based; conditions: for perc_max_measured: highest measured response of the dose series; for perc_min_measured: lowest measured response of the dose series
# Description: Supplement media-1.zip/Cytotoxicity.csv, table | column: cc10; cc50; perc_min_measured; perc_max_measured
# [9] = system: KV channel; experiment: In vitro CEREP profiling, KV channel (antagonist radioligand); assay type: binding; conditions: test compound concentration 10 uM
# Description: as §1
# [10] = target: T6, PDE3A (h) (Homo sapiens, UniProt Q14432); experiment: In vitro CEREP profiling, PDE3A (h); assay type: biochemical; conditions: test compound concentration 10 uM, Enzyme and Cell-based assays
# T6 construct: purchased Eurofins Cerep (SafetyScreen44), recognised from the panel format
# T6 sequence (Q14432 whole entry): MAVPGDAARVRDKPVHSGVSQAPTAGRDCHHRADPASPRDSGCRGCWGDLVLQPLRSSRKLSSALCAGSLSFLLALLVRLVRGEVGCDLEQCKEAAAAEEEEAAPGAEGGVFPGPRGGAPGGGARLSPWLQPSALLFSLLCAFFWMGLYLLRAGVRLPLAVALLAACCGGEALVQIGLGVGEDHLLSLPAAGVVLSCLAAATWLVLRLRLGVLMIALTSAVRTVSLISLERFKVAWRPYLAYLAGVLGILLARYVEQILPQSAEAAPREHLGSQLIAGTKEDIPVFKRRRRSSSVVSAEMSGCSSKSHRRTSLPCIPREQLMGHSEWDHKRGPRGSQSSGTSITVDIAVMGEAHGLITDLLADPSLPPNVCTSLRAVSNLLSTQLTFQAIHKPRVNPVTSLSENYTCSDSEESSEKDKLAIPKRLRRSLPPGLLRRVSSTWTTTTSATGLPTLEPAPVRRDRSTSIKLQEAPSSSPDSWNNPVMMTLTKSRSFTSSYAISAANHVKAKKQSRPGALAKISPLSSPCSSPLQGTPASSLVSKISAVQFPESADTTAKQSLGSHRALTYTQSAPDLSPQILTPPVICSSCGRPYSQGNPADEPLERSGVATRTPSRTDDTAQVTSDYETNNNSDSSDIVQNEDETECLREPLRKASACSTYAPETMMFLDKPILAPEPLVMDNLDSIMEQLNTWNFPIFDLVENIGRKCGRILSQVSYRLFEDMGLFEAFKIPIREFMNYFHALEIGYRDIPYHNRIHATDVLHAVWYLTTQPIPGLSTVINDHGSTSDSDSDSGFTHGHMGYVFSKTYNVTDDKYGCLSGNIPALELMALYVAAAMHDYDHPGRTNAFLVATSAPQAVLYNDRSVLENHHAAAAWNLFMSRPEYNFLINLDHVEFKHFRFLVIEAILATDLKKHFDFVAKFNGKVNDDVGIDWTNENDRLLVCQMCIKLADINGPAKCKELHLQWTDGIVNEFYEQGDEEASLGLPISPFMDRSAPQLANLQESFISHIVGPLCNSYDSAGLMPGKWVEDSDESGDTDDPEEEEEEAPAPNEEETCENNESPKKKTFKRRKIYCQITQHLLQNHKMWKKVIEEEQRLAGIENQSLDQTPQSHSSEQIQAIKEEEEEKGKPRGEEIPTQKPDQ
# Description: as §1
# [11] = target: T7, dopamine transporter (h) (Homo sapiens, UniProt Q01959); experiment: In vitro CEREP profiling, dopamine transporter (h) (antagonist radioligand); assay type: binding; conditions: test compound concentration 10 uM
# T7 construct: purchased Eurofins Cerep (SafetyScreen44), recognised from the panel format
# T7 sequence (Q01959 whole entry): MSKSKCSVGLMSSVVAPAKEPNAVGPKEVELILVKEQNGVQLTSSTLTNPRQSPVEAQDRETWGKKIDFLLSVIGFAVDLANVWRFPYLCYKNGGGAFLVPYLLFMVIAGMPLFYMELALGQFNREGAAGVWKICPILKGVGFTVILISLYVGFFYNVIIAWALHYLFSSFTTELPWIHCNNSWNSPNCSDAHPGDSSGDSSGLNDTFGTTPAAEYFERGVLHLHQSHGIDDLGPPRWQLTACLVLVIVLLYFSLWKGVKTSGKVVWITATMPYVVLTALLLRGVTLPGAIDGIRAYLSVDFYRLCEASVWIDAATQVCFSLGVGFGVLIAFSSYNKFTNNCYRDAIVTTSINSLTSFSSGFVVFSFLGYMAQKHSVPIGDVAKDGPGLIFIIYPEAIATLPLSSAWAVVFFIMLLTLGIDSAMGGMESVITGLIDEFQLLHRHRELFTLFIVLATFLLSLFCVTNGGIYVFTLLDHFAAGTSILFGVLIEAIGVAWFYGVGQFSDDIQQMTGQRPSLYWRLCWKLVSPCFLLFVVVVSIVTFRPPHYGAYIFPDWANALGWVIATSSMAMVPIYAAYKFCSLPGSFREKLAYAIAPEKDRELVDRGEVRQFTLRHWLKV
# Description: as §1
# [12] = target: T8, human CHRM2 (M2) (Homo sapiens, UniProt P08172); experiment: Eurofins CEREP panel, M2; assay type: binding
# T8 construct: purchased Eurofins Cerep (SafetyScreen44), recognised from the panel format
# T8 sequence (P08172 1-466): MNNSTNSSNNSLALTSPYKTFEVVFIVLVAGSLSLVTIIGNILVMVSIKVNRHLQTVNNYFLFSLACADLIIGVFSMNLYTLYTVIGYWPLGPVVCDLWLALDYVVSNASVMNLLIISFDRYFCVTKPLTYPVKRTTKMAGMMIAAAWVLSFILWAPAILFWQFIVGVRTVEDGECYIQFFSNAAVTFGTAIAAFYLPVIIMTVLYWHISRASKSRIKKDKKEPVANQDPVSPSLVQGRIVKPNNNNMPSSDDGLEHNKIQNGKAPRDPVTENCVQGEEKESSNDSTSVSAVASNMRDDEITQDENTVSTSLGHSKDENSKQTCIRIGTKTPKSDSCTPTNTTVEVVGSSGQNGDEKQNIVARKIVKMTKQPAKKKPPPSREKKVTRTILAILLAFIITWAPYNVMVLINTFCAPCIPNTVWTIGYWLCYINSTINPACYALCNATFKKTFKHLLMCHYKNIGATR
# [13] = system: BZD (central); experiment: In vitro CEREP profiling, BZD (central) (agonist radioligand); assay type: binding; conditions: test compound 10 uM
# Description: as §1
# [14] = system: Na+ channel (site 2); experiment: In vitro CEREP profiling, Na+ channel (site 2) (antagonist radioligand); assay type: binding; conditions: test compound concentration 10 uM
# Description: as §1
# [15] = target: T9, 5-HT transporter (h) (Homo sapiens, UniProt P31645); experiment: In vitro CEREP profiling, 5-HT transporter (h) (antagonist radioligand); conditions: test compound concentration 10 uM
# T9 construct: purchased Eurofins Cerep (SafetyScreen44), recognised from the panel format
# T9 sequence (P31645 whole entry): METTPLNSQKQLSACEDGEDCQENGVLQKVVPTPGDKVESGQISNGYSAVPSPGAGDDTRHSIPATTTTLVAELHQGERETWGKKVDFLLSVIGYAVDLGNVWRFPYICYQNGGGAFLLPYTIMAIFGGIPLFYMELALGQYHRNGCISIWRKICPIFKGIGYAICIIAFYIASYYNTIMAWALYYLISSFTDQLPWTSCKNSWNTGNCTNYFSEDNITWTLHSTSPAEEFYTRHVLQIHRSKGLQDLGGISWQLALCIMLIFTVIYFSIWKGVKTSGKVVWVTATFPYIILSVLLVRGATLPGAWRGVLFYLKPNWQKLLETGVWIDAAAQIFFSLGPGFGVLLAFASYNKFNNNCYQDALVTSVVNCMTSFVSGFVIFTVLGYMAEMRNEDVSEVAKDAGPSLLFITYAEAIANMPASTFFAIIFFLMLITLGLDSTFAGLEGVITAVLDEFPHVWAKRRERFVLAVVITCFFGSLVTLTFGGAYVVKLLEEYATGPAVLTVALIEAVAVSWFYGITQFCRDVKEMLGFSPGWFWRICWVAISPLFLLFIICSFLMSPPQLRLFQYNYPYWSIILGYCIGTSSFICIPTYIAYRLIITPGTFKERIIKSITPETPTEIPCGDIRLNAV
# Description: as §1
# [16] = target: T10, GR (h) (Homo sapiens, UniProt P04150); experiment: In vitro CEREP profiling, GR (h) (agonist radioligand); assay type: binding; conditions: test compound concentration 10 uM
# T10 construct: purchased Eurofins Cerep (SafetyScreen44), recognised from the panel format
# T10 sequence (P04150 1-777): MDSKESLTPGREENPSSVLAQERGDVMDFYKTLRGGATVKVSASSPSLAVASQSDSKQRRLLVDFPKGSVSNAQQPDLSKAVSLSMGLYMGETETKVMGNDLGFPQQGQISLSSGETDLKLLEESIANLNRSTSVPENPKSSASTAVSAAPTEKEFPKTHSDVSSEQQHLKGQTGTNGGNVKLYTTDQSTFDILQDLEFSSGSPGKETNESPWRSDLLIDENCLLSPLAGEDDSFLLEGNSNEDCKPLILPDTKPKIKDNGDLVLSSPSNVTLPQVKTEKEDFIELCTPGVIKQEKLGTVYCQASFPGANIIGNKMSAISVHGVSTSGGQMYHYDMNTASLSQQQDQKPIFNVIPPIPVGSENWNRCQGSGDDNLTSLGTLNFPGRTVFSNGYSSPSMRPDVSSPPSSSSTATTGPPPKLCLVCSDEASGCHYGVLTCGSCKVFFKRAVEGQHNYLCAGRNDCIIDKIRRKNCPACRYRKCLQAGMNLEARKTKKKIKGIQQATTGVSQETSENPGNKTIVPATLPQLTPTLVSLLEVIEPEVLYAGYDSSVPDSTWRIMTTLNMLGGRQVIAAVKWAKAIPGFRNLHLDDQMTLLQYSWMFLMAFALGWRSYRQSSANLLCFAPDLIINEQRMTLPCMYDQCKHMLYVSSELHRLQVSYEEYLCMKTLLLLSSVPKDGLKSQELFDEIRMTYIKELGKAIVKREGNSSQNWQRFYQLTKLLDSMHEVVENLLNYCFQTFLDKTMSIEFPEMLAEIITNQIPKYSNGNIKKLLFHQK
# Description: as §1
# [17] = system: Ca2+ channel (L, dihydropyridine site); experiment: In vitro CEREP profiling, Ca2+ channel (L, dihydropyridine site) (antagonist radioligand); assay type: binding; conditions: test compound concentration 10 uM
# Description: as §1
# [18] = target: T11, H1 (h) (Homo sapiens, UniProt P35367); experiment: In vitro CEREP profiling, H1 (h) (antagonist radioligand); assay type: binding; conditions: test compound concentration 10 uM
# T11 construct: purchased Eurofins Cerep (SafetyScreen44), recognised from the panel format
# T11 sequence (P35367 whole entry): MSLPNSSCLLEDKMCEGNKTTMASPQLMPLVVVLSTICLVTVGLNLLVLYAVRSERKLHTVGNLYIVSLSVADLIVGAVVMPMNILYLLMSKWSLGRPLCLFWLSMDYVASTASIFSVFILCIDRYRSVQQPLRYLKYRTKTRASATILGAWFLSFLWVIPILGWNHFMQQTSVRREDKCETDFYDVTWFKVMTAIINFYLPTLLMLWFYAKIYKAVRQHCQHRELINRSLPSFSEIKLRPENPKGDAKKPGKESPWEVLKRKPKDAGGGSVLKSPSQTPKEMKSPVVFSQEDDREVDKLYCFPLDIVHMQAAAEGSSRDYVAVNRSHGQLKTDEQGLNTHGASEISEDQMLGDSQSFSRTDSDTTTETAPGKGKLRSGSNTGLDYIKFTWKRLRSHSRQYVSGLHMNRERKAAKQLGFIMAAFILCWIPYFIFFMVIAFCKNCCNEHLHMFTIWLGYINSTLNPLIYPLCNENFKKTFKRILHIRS
# Description: as §1
# [19] = M2 (h) (antagonist radioligand), test compound concentration 10 uM
# [20] = read-out: perc_inhibition (% inhibition of the binding of a ligand specific for each target)
# [21] = read-out: perc_inhibition, % inhibition of the binding of a ligand specific for each target
SMILES,perc_inhibition (% inhibition of the binding of a ligand specific for each target) [1],"perc_inhibition: % inhibition of control enzyme activity, COX1(h) [2]","perc_inhibition: % inhibition of control enzyme activity, PDE4D2 (h) [3]",perc_inhibition (% inhibition of the binding of a ligand specific for each target) [4],perc_inhibition (% inhibition of the binding of a ligand specific for each target) [5],perc_inhibition (% inhibition of the binding of a ligand specific for each target) [6],clint [7],t_half [7],CC50 [8],cc10 [8],perc_max_measured [8],perc_min_measured [8],perc_inhibition (% inhibition of the binding of a ligand specific for each target) [9],"perc_inhibition: % inhibition of control enzyme activity, PDE3A (h) [10]",perc_inhibition (% inhibition of the binding of a ligand specific for each target) [11],"perc_inhibition (% inhibition of the binding of a ligand specific for each target) [12, 19]",perc_inhibition (% inhibition of the binding of a ligand specific for each target) [13],perc_inhibition (% inhibition of the binding of a ligand specific for each target) [14],"perc_inhibition: % inhibition of the binding of a ligand specific for each target, 5-HT transporter (h) (antagonist radioligand) [15]",perc_inhibition (% inhibition of the binding of a ligand specific for each target) [17],also measured
CC(C)[C@H](Nc1ncnc2[nH]c(-c3cnn(C)c3C#N)cc12)c1ccc2c(n1)OCCO2 [ASAP-0010715],2%,-39%,70%,-3%,-16%,3%,23.7 µL/min/mg,29.2 min,> 5 µM,> 5.0 µM,109.412%,72.414%,0%,37%,29%,18%,-2%,10%,4%,9%,perc_inhibition (% inhibition of the binding of a ligand specific for each target) [16]: 11%; perc_inhibition (% inhibition of the binding of a ligand specific for each target) [18]: 5%
CC(C)[C@@H](Nc1ncnc2[nH]c(-c3cnn(C)c3C#N)cc12)c1ccc2c(n1)OCCO2 [ASAP-0010716],-2%,-34%,44%,12%,-11%,3%,23.2 µL/min/mg,29.8 min,> 5 µM,> 5.0 µM,116.627%,99.207%,2%,37%,30%,15%,8%,12%,9%,10%,perc_inhibition (% inhibition of the binding of a ligand specific for each target) [16]: 22%; perc_inhibition (% inhibition of the binding of a ligand specific for each target) [18]: 0%
CNCc1cc(-c2cc3c(N[C@@H](c4ccc5c(c4)S(=O)(=O)CCC5)C(C)C)ncnc3[nH]2)co1 [ASAP-0011176],0%,-6%,43%,10%,-3%,6%,20.0 µL/min/mg,34.7 min,> 5 µM,> 5.0 µM,117.999%,102.841%,1%,-5%,50%,52%,28%,19%,24%,-3%,perc_inhibition (% inhibition of the binding of a ligand specific for each target) [16]: 21%; perc_inhibition (% inhibition of the binding of a ligand specific for each target) [18]: -3%
CC(C)C(Nc1ncnc2[nH]c(C(=O)NC3CCN(C)C3)cc12)c1ccc2c(c1)S(=O)(=O)CCC2 (stereo not shown) [ASAP-0011198],,,,-5%,,,,> 139.0 min,,> 5.0 µM,120.684%,90.027%,2%,,,,38%,16%,1%,-6%,"inhibition at 10 µM [1, 20]: -2%; inhibition at 10 µM ([2]; read-out: perc_inhibition: % inhibition of control enzyme activity, COX1(h)): 44%; inhibition at 10 µM ([3]; read-out: perc_inhibition: % inhibition of control enzyme activity, PDE4D2 (h)): 37%; inhibition at 10 µM [5, 20]: -9%; inhibition at 10 µM [6, 20]: -3%; microsomal CLint ([7]; liver microsomes): < 5 µL/min/mg; inhibition at 10 µM ([10]; read-out: perc_inhibition: % inhibition of control enzyme activity, PDE3A (h)): 4%; inhibition at 10 µM [11, 21]: 22%; off-target activity at human CHRM2, in words ([12]; CEREP panel): moderate; inhibition at 10 µM ([12]; M2 (h) (antagonist radioligand), test compound concentration 10 uM, read-out: perc_inhibition (% inhibition of the binding of a ligand specific for each target)): 52%; inhibition at 10 µM [16, 21]: 11%; inhibition at 10 µM [18, 20]: 2%"
